Test [1] deals with iNOS biosynthesis of NO in C2C12 myocytes. In words: Inhibition of LTI (LPS/TNFα/IFγ)-stimulated iNOS biosynthesis of NO in C2C12 myocytes. It is filed as cell-based, murine. To be noted: Mus musculus.
From the text: The Model—The C2C12 murine myocyte model was used in this Example. This model was selected to serve as the surrogate for muscle cells of the bladder that are exposed to the inflammatory stimuli of the invading bacteria, modeled by lipopolysaccharide (LPS), as well as the counter-inflammatory responses of the bladder infiltrating macrophage, modeled by interferon gamma (IFγ) and tumor necrosis factor alpha (TNFα). […] A significant increase in baseline NO production in cats with feline interstitial cystitis compared with that in healthy cats has been found in smooth muscle and mucosal strips.
(§1) Cell culture and treatment—Mouse C2C12 myoblasts (American Type Culture Collection, Manassas, Va.) were maintained in Dulbecco's modified Eagle's medium (DMEM) supplemented with 10% fetal calf serum (FCS), 50 units/ml penicillin and 50 μg/ml streptomycin. As cells reached confluence, the medium was switched to the differentiation medium containing DMEM and 2% horse serum. Medium was changed every other day. After 4 additional days, the differentiated C2C12 cells had fused into myotubes, which were then treated in serum-free DMEM with either vehicle alone (0.1% DMSO), or 50, 10, 5, or 1 μg thymoquinone/mL for 1 hour and then stimulated with a cytokine mixture containing 1 μg LPS/mL, 50 ng TNFα/mL and 100 U IFγ/mL (LTI) for 20 hours. At the end of the treatment period, media were sampled for determination of NO.
Nitric oxide determination—NBD methylhydrazine (NBDM, N-methyl-4-hydrazino-7-nitrobenzofurazan) was used to detect N-methyl-4-amino-7-nitrobenzofuazan, the fluorescent product of the NBDM reagent with nitrite (Buldt A, Karst U. Determination of nitrite in waters by microplate fluorescence spectroscopy and HPLC with fluorescence detection. Anal Chem. Aug. 1, 1999; 71(15):3003-3007). In a separate, black-walled, 96-well, microtiter plate, a 7 μL aliquot of a 4.8×10^−4 mol NBDM/L solution was added to 200 μL of the supernatant media followed by the addition of 15 μL of concentrated phosphoric acid. After a reaction time of 30 minutes at ambient temperature, the fluorescence was read with 485 nm excitation filter and a 530 nm emission filter in a Packard Fluorocount spectrofluorometer (Model#BF10000, Meridan, Conn.). Fluoresence was linear in the range of 3.59×10^−7 to 1.44×10^−5 mol nitrite/L. The standard deviation was 3.5 percent for 1.44×10^−6 mol nitrite/L. Experiments were performed a minimum of three times with eight replicates per dose, capturing the median inhibitory concentration (IC50) when possible.
Calculations—The median inhibitory concentrations (IC50) and 95% confidence interval were calculated using CalcuSyn (BIOSOFT, Ferguson, Mo.). This statistical package performs multiple drug dose-effect calculations using the Median Effect methods described by Chou and Talalay [Chou T C, Talalay P. Quantitative analysis of dose-effect relationships: the combined effects of multiple drugs or enzyme inhibitors. Adv Enzyme Regul. 1984; 22:27-55].
The Model—The C2C12 murine myocyte model as described in Example 1 was used.
as §1, with “units/mL” for “units/ml”, “μg/mL of the thymoquinone test formulation” for “μg thymoquinone/mL”, “IFγ/mL” for “IFγ/mL (LTI)”, “NO. […]” for “NO.”

For test [2] the following is noted: 1500 to 3000 mg/day in humans, 19 subjects, reduced from 7.5; Jarrar 1996; cited from earlier work.
Test [3] has as its system NO production in LPS-stimulated macrophages. To be noted: single stimulating agent, El-Mahmoudy 2002; cited from earlier work.
[4] abbreviates: pure compounds from Sigma, LTI-stimulated C2C12 myocytes as in Example 1, read-out: median inhibitory concentration.

Molecules are shown by their SMILES. Values after ≈ are worked out from the molar mass of the structure shown. Read-outs that look alike come from different tables or passages of the source.

As for `CC=Cc1ccc(OC)cc1` [anethole], in test [1] (setting [4]), the IC50 is not below 10 µg/mL.
On to `Cc1ccc(C(C)C)cc1O` [carvacrol], for which the IC50 in test [1] (C2C12, read-out: median inhibitory concentration) is not below 10 µg/mL.
Regarding `CSCC[C@H](N)C(=O)O` [Methionine], the “mean pH values of the urine after treatment” value in test [2] is recorded as 5.5.
For `Cc1ccc(C(C)C)cc1` [cymene], the IC50 in test [1] (setting [4]) was not below 10 µg/mL.
In the case of `CC1=CC(=O)C(C(C)C)=CC1=O` [thymoquinone], the IC50 in test [1] (C2C12 myotubes, 1 h pre-treatment, then LPS/TNFα/IFγ mixture for 20 h, 95% confidence interval 1.1 to 2.3 μg/mL, read-out: median inhibitory concentration of iNOS-mediated NO production) was found to be 1.6 µg/mL (≈ 9.74 µM); in test [1] (LTI-stimulated C2C12 myocytes, adjusted for thymoquinone content, brackets = 95% confidence interval, read-out: Adjusted iNOS (IC50)), 1.6 µg/mL (≈ 9.74 µM). Besides, the “IC50 inhibiting NO production” value in test [3] was 1.4 to 2.8 µg/mL.
Turning to `Cc1ccc(C(C)C)c(O)c1` [thymol], the IC50 in test [1] (setting [4]) was not below 10 µg/mL.

(Values after US8029831B2, “Formulations containing thymoquinone for urinary health” (Bionexus, Ltd., priority 2008, dated 2011).)
